Article PMC6934184, “Selective DNA-PKcs inhibition extends the therapeutic index of localized radiotherapy and chemotherapy” (The Journal of Clinical Investigation, 2019)

Molecular target: T1, AMPK A2/B1/G1 (Homo sapiens, UniProt P54646)
T1 construct: purchased Thermo Fisher Scientific (Life Technologies) SelectScreen
Assay: SelectScreen Z'LYTE
Format: biochemical
Summary of the method: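 SelectScreen broad panel; activity (Z'LYTE, Adapta) plus binding formats. ATP: Km app for CSF1R Z'LYTE; 10 for CAMK1 Adapta. Readout = % per kinase.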

T1 sequence (P54646 whole entry): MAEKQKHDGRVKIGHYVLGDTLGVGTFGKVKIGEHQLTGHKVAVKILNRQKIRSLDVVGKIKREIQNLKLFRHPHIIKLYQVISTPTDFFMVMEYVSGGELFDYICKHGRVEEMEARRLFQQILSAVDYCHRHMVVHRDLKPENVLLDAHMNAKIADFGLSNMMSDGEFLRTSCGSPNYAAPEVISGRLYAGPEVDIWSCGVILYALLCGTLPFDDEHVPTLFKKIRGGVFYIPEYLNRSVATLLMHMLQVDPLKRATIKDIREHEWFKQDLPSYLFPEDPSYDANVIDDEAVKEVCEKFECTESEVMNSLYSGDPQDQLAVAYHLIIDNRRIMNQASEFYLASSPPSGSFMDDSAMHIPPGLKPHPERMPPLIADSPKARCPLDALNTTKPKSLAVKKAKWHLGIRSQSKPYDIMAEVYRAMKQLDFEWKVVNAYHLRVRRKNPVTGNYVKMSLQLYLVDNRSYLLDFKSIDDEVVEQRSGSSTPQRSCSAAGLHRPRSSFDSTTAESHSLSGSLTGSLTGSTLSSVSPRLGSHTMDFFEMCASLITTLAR
T1 sequence (Q9Y478 whole entry partner): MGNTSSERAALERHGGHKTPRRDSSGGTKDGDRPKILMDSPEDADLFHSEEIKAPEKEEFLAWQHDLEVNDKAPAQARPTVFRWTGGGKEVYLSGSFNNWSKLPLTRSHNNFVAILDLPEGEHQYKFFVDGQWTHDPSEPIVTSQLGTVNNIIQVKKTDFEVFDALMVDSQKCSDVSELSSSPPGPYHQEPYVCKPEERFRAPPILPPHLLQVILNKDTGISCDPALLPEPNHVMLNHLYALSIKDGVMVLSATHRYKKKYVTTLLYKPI
T1 sequence (P54619 whole entry partner): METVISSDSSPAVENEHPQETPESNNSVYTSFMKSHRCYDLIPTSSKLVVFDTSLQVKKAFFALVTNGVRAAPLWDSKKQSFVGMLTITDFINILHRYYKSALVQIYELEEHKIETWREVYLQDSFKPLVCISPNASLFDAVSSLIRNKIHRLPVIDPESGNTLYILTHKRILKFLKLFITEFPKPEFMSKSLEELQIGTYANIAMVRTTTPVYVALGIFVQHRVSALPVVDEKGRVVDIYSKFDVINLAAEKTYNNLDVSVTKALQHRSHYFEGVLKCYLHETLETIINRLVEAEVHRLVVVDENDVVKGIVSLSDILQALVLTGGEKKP

`CN(C(=O)CN1CCOCC1)c1ccc2sc3c(-c4cccc5c(=O)cc(N6CC7CCC(C6)O7)oc45)cccc3c2c1` [NU5455] showed an inhibition at 1 µM of 2.6%.
